Measurements published in BindingDB's records for doi:10.1021/jm980290i (Research Triangle Institute, 1998).

Assay: Inhibition of [35S]GTP-gamma-S, binding in guinea pig caudate stimulated by SNC80 (Opioid receptor delta 1)

**Q.** Which Ki does the source give for `C[C@H]1C2CCCC1(c1cccc(O)c1)CCN2CCc1ccccc1` (stereo partly drawn) [3-((R)-9-Methyl-2-phenethyl-2-aza-bicyclo[3.3.1]non-5-yl)-phenol] here?
**A.** Its Ki is 13 nM.
